Like-named read-outs stand apart in the source and are kept apart here.
Columns and labels:
C. auris = assay: Ex vivo porcine skin model of Candida auris colonization
Experimental: The collection of porcine skin samples was conducted under protocols approved by the University of Wisconsin-Madison Institutional Animal Care and Use Committee in accordance with published National Institutes of Health (NIH) and United States Department of Agriculture (USDA) guidelines. Excised skin was cleaned and shaved as described previously (Johnson et al., 2022). Full-thickness samples were obtained by 12 mm punch and placed in 12-well plates containing 3 mL Dulbecco's Modified Eagle Medium (DMEM) (Lonza, Walkersville, MD, USA) supplemented with 10% fetal bovine serum (FBS) (Atlanta biologicals, Lawrenceville, GA, USA), penicillin (1,000 U/mL), and streptomycin (1 mg/mL) (Corning, Manassas, VA, USA) for 6 hours. Tissues were rinsed in DBPS and moved to semi-solid media (6:4 ratio of 1% agarose (BIO-RAD, Hercules, CA, USA) in DPBS:DMEM with 10% FBS). Paraffin wax was applied around the edge of the skin and 10 μL C. auris suspended in synthetic sweat medium at 10^7 cells/mL was applied. Samples were incubated at 24 hours and compound A (8 μg/mL or 16 μg/mL) in synthetic sweat medium was applied. After 24 hours a sterile swab was used to remove compound from skin surface. Samples were vortexed in DPBS and plated on YPD+chloramphenicol to assess viable burden.

HepG2 cells = assay: Mammalian cell culture toxicity assay (LDH release and XTT); type: cell-based, human
Experimental: HepG2 cells (ATCC, #) were maintained and cultured in HepG2 media (DMEM (Gibco, Cat #11965-092) with 5% FBS, 20 mM Glutamine, and Penicillin/Streptomycin) at 37° C. with 5% CO2. Cells were seeded in 96-well plates at a density of 1.25×10^4 cells/well and incubated overnight at 37° C. with 5% CO2, then media was removed and replaced with media containing a two-fold dilution series of compounds with equal DMSO concentrations across all wells including no compound controls. Cells were incubated for an additional 24 hours. Supernatant was removed and used to quantify lactate dehydrogenase release using the CyQuant LDH assay kit (Invitrogen, Cat #C20300) following the manufacturer's directions. LDH signal was normalized to a max lysis control. The remaining cells were then used to quantify cellular metabolism by XTT. Briefly, cells were washed, then 0.9 mg/mL XTT (Sigma, CAT #X4626)+320 μg/mL PMS ([…] methosulfate; Sigma, Cat #P9625) in HepG2 media was added to each well. Plates were incubated at 37° C., with 5% CO2 for 2 hours, then absorbance was measured at 490 nm.

A. fumigatus = assay: Planktonic MIC, CLSI guidelines; type: cell-based; conditions: Aspergillus fumigatus, read-out: MIC
Experimental: (§1) Minimum inhibitory concentrations were determined using CLSI guidelines (Beattie & Krysan, 2021; Wiederhold, 2021). All yeasts were cultured overnight in 3 mL YPD at 30° C., then washed twice in sterile PBS. Two-fold serial dilutions of each compound were prepared in RMPI+MOPS pH 7 (Gibco RPMI 1640 with L-glutamine [11875-093] and 0.165M 352 MOPS), then 1×10^3 cells were added per well. Plates were incubated at 37° C. for 24 hours (C. albicans and S. cerevisiae) or 72 hours (C. neoformans). For A. fumigatus and F. oxysporum wells were inoculated with 1.25×10^4 conidia. Plates were incubated at 37° C. for 48 hours for A. fumigatus and 72 hours for F. oxysporum. All MICs are defined as the well with complete growth inhibition as determined by visual inspection with the exception of MICs of fluconazole against C. albicans where the MIC is defined as at least 50% reduction in growth compared to the control.

F. oxysporum = assay: Planktonic MIC, CLSI guidelines; type: cell-based; conditions: Fusarium oxysporum; strain DUMC Fo
Experimental: as §1

C. glabrata = assay: Planktonic MIC, CLSI guidelines; type: cell-based; conditions: Nakaseomyces glabratus; strain KK2001
Experimental: as §1

C. neoformans = assay: Planktonic MIC, CLSI guidelines; type: cell-based; conditions: Cryptococcus neoformans
Experimental: as §1

Nc1cc[n+](CC(=O)c2ccc3c(c2)OC(c2ccccc2)(c2ccccc2)O3)cc1.[Cl-] [Compound A]
reduction of fungal burden of colonized porcine skin (C. auris; 8 μg/mL, 24 hours after a single treatment): about 1 log10 | fungal burden of colonized porcine skin (C. auris; 16 μg/mL versus 8 μg/mL, 24 hours): not reduced further | reduction of C. auris colonization of skin (C. auris; 8 or 16 μg/mL, 24 hours): about 1 log10 CFU | LD50, cell lysis assay (HepG2 cells; HepG2, LDH release, 24 h): 9 µg/mL | LD50, metabolic activity assay (HepG2 cells; HepG2, XTT, 24 h): 20 µg/mL | LD50, toxicity against human cell lines (HepG2 cells; readout not given): 9 µg/mL | MIC (A. fumigatus; strain AF293): 2 µg/mL | MIC (A. fumigatus; strain CEA10): 32 µg/mL | MIC (A. fumigatus; strain CFF S001): 64 µg/mL | MIC (A. fumigatus; strain CFF S003): 4 µg/mL | MIC (A. fumigatus; strain CFF S007): 64 µg/mL | MIC (A. fumigatus; strain CFF S008): 64 µg/mL | MIC (A. fumigatus; strain CFF S014): 8 µg/mL | MIC (A. fumigatus; strain CFF S029): 4 µg/mL | MIC (A. fumigatus; strain Cas^R): 32 µg/mL | MIC (A. fumigatus; strain SPF98): 64 µg/mL | MIC (F. oxysporum): 16 µg/mL | MIC (C. glabrata): 4 µg/mL | MIC (C. neoformans; strain DUMC 118.00): 4 µg/mL | MIC (C. neoformans; strain DUMC 122.01): 4 µg/mL | MIC (C. neoformans; strain H99): 4 µg/mL

Reference: US20260274828A1, “BROAD SPECTRUM ANTIFUNGAL KETO-ALKYL-PYRIDINIUM COMPOUNDS” (priority 2023, published 2026)
